Results: PMC2116148 (The Journal of Cell Biology, 1990)

Tests used:
Assay type in all cases: cell-based, mouse
[1] = system: K1735 M4 murine melanoma cell line; assay: Cell adhesion and spreading assay on peptide- or protein-coated Immulon 1 plates
[2] = system: M4 melanoma cells; conditions: even at the highest concentrations tested (Fig. 7, up to 500 μg/ml)
[3] = system: M4 melanoma cells; conditions: filters coated with type IV collagen; soluble control peptide (Fig. 3c)

Row | Substance | melanoma cell spreading compared with peptide IV-H1 ([1]; all peptide concentrations (5-500 μg/ml), all time points (20-90 min) (Fig. 6)) | melanoma cell adhesion on alanyl-substituted peptide compared with peptide IV-H1 ([1]; coated surfaces, up to 500 μg/ml (Fig. 5)) | cell motility through coated filters [2] | promotion of melanoma cell adhesion or spreading ([1]; control peptide, coated surface) | effect on type IV collagen-mediated cell motility [3]
1 | GVKGDKGNAGWAGAA(Y) [peptide IV-H1A] | decreased ability to spread | nearly the same extent | not observed | – | –
2 | GVPGKDGQAGQPGQP(Y) [peptide 17] | – | – | – | does not promote | no effect
